# Results taken from US20070253907A1, “Non Human Transgenic Animal as Model of Neurodegenerative Diseases and for the Early Diagnosis Thereof” (priority 2004, published 2007).
# “Also recorded” adds a separate entry of the source.
# Tested on: VK-AD11 mice
# Test: Reversal of the neurodegenerative phenotype of VK-AD11 mice by intranasal NGF administration
# Format: in vivo
# Settings: VK-AD11 mice from 4 months of age, NGF 10 μM solution intranasally every 2 days
# Procedure: All experiments were conducted in mice starting from 4 months of age, when neurodegeneration is not so readily apparent. NGF was administered by intranasal injection (Frey et al., 1997) conducted every 2 days. NGF was administered as a 10 μM solution in phosphate buffer pH 7.4, injecting 3 μl per nostril every 2 min and alternating nostrils. The VK-AD11 control mice and non transgenic mice were treated only with phosphate buffer. For each administration, the infusion lasted 30 min. This non invasive method for administering NGF allows to avoid the use of the intraventricular injections to apply NGF directly to the cerebral tissue.
# To verify the administration of NGF, the mice were sacrificed 2 months from the begining of the treatment. The brain was removed and fixed in paraformaldehyde to conduct histological analyses.
substance,measurement,setting,value
"NGF: Nerve Growth Factor, administered intranasally as a 10 μM solution in phosphate buffer pH 7.4",cholinergic deficit,histology 2 months from beginning of treatment (FIG. 18A),improves; also recorded: a similar phenotype to that of the non transgenic control mice was re-established
same,deposition of β-amyloid (number of cells containing β-amyloid),histology 2 months from beginning of treatment (FIG. 18B),decreases; also recorded: a similar phenotype to that of the non transgenic control mice was re-established
same,hyperphosphorylated tau (number of cells that express phosphorylated tau),histology 2 months from beginning of treatment (FIG. 18C),decreases; also recorded: a similar phenotype to that of the non transgenic control mice was re-established
